According to US20080124376A1, “OCULAR DEVICES AND METHODS OF MAKING AND USING THEREOF” (NOVARTIS AG, priority 2006, published 2008):
Counter-ions that a name gives are not always drawn.

Legend:
Type in all cases: physicochemical
[1] = Aqueous passive and agitated release from ASM981-loaded Nelfilcon membrane; settings: membrane of 1% ASM981 in Nelfilcon
Experimental: The addition of Pimecrolimus (SDZ ASM981), which is synthesized by Novartis Pharma, in solution form to Nelfilcon macromer increases the liquid content of the macromer. Simple addition of the ASM981 consequently diluted the macromer and photopolymerisation produced wet structurally incoherent product. A membrane composed of 1% ASM981 was prepared by adding 1 g of the ASM981 solution to 5 g of nelfilcon macromer, vortexing for approximately 5 minutes, and removing the lid of the vial to remove excess water. The mass of the ASM981-loaded macromer was allowed to return to its original 5 g. This was conveniently achieved by leaving the mixture overnight on a flatbed shaker under a nitrogen blanket. The mixture was then placed in a membrane mould and polymerised under a static UV lamp. The mixture was successfully polymerised to form a coherent membrane, and the resultant membrane was opaque in appearance.

[2] = Passive diffusion release from drug-loaded lens / Nelfilcon membrane discs
Experimental: Cromolyn sodium was strongly absorbed by the […] matrix. The amount absorbed from a 4% concentration (equivalent to an ophthalmic solution) soak solution was on the order of 1 mg. Approximately 100 μg was released passively during a short burst period, leaving some 900 μg for release by trigger mechanism. […] A mixture of Nelfilcon and cromolyn sodium was polymerised to form a membrane, and 1.5 cm diameter discs were cut out and the release profile examined. The release profile of the directly loaded and the absorbed drug described above were compared. Direct loading levels were much lower (approx. 20 μg per lens) than the 1 mg per lens absorbed from a 4% solution. […] Ketotifen fumarate was used at much lower levels in ophthalmic solution (0.025%) than cromolyn sodium, which was reflected in the uptake experiments. Ketotifen fumarate was absorbed from a 0.025% solution into the lens at a level of 35 μg, with a modest amount released during a short burst period, leaving approximately 30 μg retained in the matrix. This is a very significant payload in relation to daily requirements. […] A mixture of Nelfilcon and ketotifen fumarate was polymerised to form a membrane, and 1.5 cm diameter discs were cut out and the release profile examined. The release profile of the directly loaded and the absorbed drug described above were compared. As with cromolyn sodium, the matrix distribution of the drug loaded directly into the polymer matrix produced differences in release behaviour compared to the absorbed drug.

[3] = Drug uptake via absorption into the Dailies matrix from soak solution
Experimental: Cromolyn sodium was strongly absorbed by the Dailies matrix. The amount absorbed from a 4% concentration (equivalent to an ophthalmic solution) soak solution was on the order of 1 mg. Approximately 100 μg was released passively during a short burst period, leaving some 900 μg for release by trigger mechanism.
Ketotifen fumarate was used at much lower levels in ophthalmic solution (0.025%) than cromolyn sodium, which was reflected in the uptake experiments. Ketotifen fumarate was absorbed from a 0.025% solution into the lens at a level of 35 μg, with a modest amount released during a short burst period, leaving approximately 30 μg retained in the matrix. This is a very significant payload in relation to daily requirements.

[4] = Direct loading of drug into the Nelfilcon macromer (loading level); settings: drug loaded directly into Nelfilcon macromer
Experimental: A mixture of Nelfilcon and cromolyn sodium was polymerised to form a membrane, and 1.5 cm diameter discs were cut out and the release profile examined. The release profile of the directly loaded and the absorbed drug described above were compared. Direct loading levels were much lower (approx. 20 μg per lens) than the 1 mg per lens absorbed from a 4% solution.

[5] = Trigger release in vortex eye model (in vitro in-eye release model); settings: for triggered release: in eye model (vortex); for trigger release following passive diffusion: drug loaded via absorption into Dailies matrix
Experimental: The vortex model is the in vitro in-eye release model described in commonly owned copending US Patent Application Publication No. 2006/0251696 A1 (herein incorporated by reference in its entirety). The experiment is carried out as follows. A contact lens is first blotted dry and immediately is carefully placed into 100 microliter of an extraction medium in an tube (e.g., a centrifuge tube, a scintillation vial, or preferably an Eppendorf microtube) and the microtube is agitated for fifteen seconds using, e.g., a Vibrex vortex mixer. At the end of one hour period, the tube is again agitated using, e.g., a Vibrex vortex mixer, for a further fifteen seconds. The extraction medium is removed from the Eppendorf microtube and 100 microliter of a fresh extraction medium is added. Extraction samples are stored at 25° C. between agitation procedures. The concentration of a guest material extracted out of a lens can be determined according to any methods known to a person skilled in the art.

[6] = Release of Rose Bengal from Nelfilcon lenses in PBS and lysozyme solution
[7] = Release of hyaluronan from Nelfilcon matrix in artificial lacrimal solution
Experimental: Using the techniques above, a mixture of Nelfilcon and varying amounts of hyaluronan was polymerised to form a membrane. The amount of hyaluronan loaded into the Nelfilcon macromer was 2, 6.5, and 40 mg hyaluronan/g nelfilcon (30% by weight aqueous solution). The hyaluronan used was approximately 50 kDa, 100 kDa, and 1 million Da.
The release of hyaluronan from the membrane was investigated by varying the amount and length of the hyaluronan incorporated into the matrix. Release studies were performed by placing each lens in a solution of 5 mL of artificial lacrimal solution at 35° C.

[8] = Heat stability of Nelfilcon lens with hyaluronan; settings: lens in 6.5 mg/mL hyaluronan solution, pH 11, 120° C. for 40 minutes; FIG. 3
Experimental: Heat stability studies were also performed on the membranes. A lens prepared from 6.5 mg/mL loading of 1 M Da hyaluronan was placed in a tube of 6.5 mg/mL solution of hyaluronan at a pH of 11. The tube was sealed with a total volume of 0.8 mL, and the solution was heated at 120° C. for 40 minutes.

[9] = drug loaded directly into Nelfilcon macromer

CC[C@@H]1/C=C(\C)C[C@H](C)C[C@H](OC)[C@H]2O[C@@](O)(C(=O)C(=O)N3CCCC[C@H]3C(=O)O[C@H](/C(C)=C/[C@@H]3CC[C@H](Cl)[C@H](OC)C3)[C@H](C)[C@@H](O)CC1=O)[C@H](C)C[C@@H]2OC [ASM981, Pimecrolimus]
aqueous passive and agitated release [1]: no release was observed

O=C(O)c1cc(=O)c2c(OCC(O)COc3cccc4oc(C(=O)O)cc(=O)c34)cccc2o1 [Cromolyn sodium]
amount released passively during a short burst period ([2]; drug absorbed into Dailies matrix from 4% solution): Approximately 100 μg | amount left for release by trigger mechanism ([2]; drug absorbed into Dailies matrix from 4% solution, after burst): ~900 µg | passive release ([2]; drug loaded directly into Nelfilcon macromer, 1.5 cm discs): virtually zero passive release | amount absorbed from soak solution ([3]; 4% concentration soak solution): ~1 mg | direct loading level [4]: approx. 20 μg per lens | triggered release [5, 9]: very significant triggered release | trigger release following passive diffusion ([5]; vortex eye model): significant release

CN1CCC(=C2c3ccccc3CC(=O)c3sccc32)CC1 [Ketotifen fumarate]
amount released during a short burst period ([2]; drug absorbed into Dailies matrix from 0.025% solution): modest amount | amount retained in the matrix ([2]; drug absorbed into Dailies matrix from 0.025% solution, after burst): approximately 30 μg | time for passive diffusion to come to equilibrium [2, 9]: three | amount absorbed into the lens ([3]; 0.025% solution): 35 µg | effect of albumin on trigger release ([5]; drug absorbed into Dailies matrix, albumin): little effect | effect of positively charged proteins such as lysozyme on trigger release ([5]; drug absorbed into Dailies matrix, lysozyme): significant enhanced effect | triggered release [5, 9]: very effective further release | effect of positively charged tear protein (lysozyme) on trigger release ([5]; drug loaded directly into Nelfilcon macromer, vortex eye model): enhanced | trigger release following passive diffusion ([5]; vortex eye model): enhanced triggered release susceptibility

O=C([O-])c1c(Cl)c(Cl)c(Cl)c(Cl)c1-c1c2cc(I)c(=O)c(I)c-2oc2c(I)c([O-])c(I)cc12.[Na+].[Na+] [Rose Bengal]
stability of loaded lens in saline solutions ([6]; Nelfilcon lens loaded with Rose Bengal): stable in saline solutions for extended periods of time | release in PBS solution with no lysozyme ([6]; Nelfilcon lens, approximately minute 150, FIG. 4): little to no Rose Bengal was released | release in a solution of lysozyme ([6]; Nelfilcon lens, from minute zero, FIG. 4): released steadily

hyaluronan
effect of increasing the amount of hyaluronan on release ([7]; 2, 6.5, 40 mg hyaluronan/g nelfilcon, FIG. 2): significantly affects the release

hyaluronan [1 M Da hyaluronan]
release pattern (release rate) ([7]; loading 6.5 mg HA/g nelfilcon, 5 mL artificial lacrimal solution, 35° C., FIG. 1): relatively constant release rate from 2 to 48 hours | heat stability: release over time after heating [8]: release curve is similar to that of the release of hyaluronan from the matrix that is not heated
